Laboratory results: article PMC5011342, “A high throughput drug screening assay to identify compounds that promote oligodendrocyte differentiation using acutely dissociated and purified oligodendrocyte precursor cells” (BMC Research Notes, 2016)
Where a name gives a salt, the structure may show the parent alone. Read-outs that look alike come from different tables or passages of the source.

Key:
[1] = test system: acutely dissociated and purified rat OPCs; test: Acute OL differentiation assay (MBP expression/cell, immunofluorescent image quantification); format: cell-based
Procedure, shortened: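 This acute differentiation assay used purified rat OPCs from postnatal day 6–7 pups, seeded into PDL/laminin-coated 96-well plates in differentiation medium lacking PDGF and FGF. Compounds were applied in quadruplicate after a 1–2 h preincubation at 37 °C, 10 % CO2, with 0.1 % DMSO negative and 40 ng/ml T3 positive controls in eight wells. After fixation on DIV4, anti-MBP immunofluorescence images yielded MBP expression/cell.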

[2] = test system: expanded OPCs; test: cells; conditions: for viability at 0.1 µM / viability at 1 µM / viability at 10 µM: Rattus norvegicus, 72 h
Procedure, shortened: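 Toxicity screen: compounds added at 0.1, 1 and 10 µM to PDGF-AA-expanded OPCs in 96-well plates, 3-day incubation at 37 °C, 10% CO2, then alamarBlue 1:10 for 4 h with fluorescence readout. Results set screening doses of 10/2, 2/0.4 or 0.4/0.08 µM.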

[3] = Rattus norvegicus, test compound at 2 uM, NCC library screen, sheet "All OLga data", relative to quetiapine, read-out: 2 uM (% Quet)
[4] = Rattus norvegicus, test compound at 10 uM, NCC library screen, sheet "All OLga data", relative to quetiapine, read-out: 10 uM (% Quet)
[5] = alamarBlue viability of expanded OPCs, compound at 0.1 µM, relative to DMSO control
[6] = alamarBlue viability of expanded OPCs, compound at 1 µM, relative to DMSO control
[7] = alamarBlue viability of expanded OPCs, compound at 10 µM, relative to DMSO control
[8] = test compound at 2 uM, NCC library screen, sheet "All OLga data", relative to quetiapine
[9] = test compound at 10 uM, NCC library screen, sheet "All OLga data", relative to quetiapine
[10] = alamarBlue viability, NCC library compound at 0.1 µM, sheet "All Tox data"
[11] = alamarBlue viability, NCC library compound at 1 µM, sheet "All Tox data"
[12] = alamarBlue viability, NCC library compound at 10 µM, sheet "All Tox data"
[13] = Rattus norvegicus, test compound at 0.4 uM, NCC library screen, sheet "All OLga data", relative to quetiapine, read-out: 0.4 uM (% Quet)
[14] = read-out: 0.1 µM (% DMSO), alamarBlue viability, NCC library compound at 0.1 µM, sheet "All Tox data"
[15] = read-out: 1 µM (% DMSO), alamarBlue viability, NCC library compound at 1 µM, sheet "All Tox data"
[16] = read-out: 10 µM (% DMSO), alamarBlue viability, NCC library compound at 10 µM, sheet "All Tox data"
[17] = Rattus norvegicus, test compound at 2 uM, MBP expression relative to quetiapine, NCC library screen, sheet "All OLga data", read-out: 2 uM (% Quet)
[18] = Rattus norvegicus, test compound at 10 uM, MBP expression relative to quetiapine, NCC library screen, sheet "All OLga data", read-out: 10 uM (% Quet)
[19] = Rattus norvegicus, 2 uM test compound, relative to quetiapine, sheet "All OLga data", read-out: OL differentiation, 2 uM (% Quet)
[20] = Rattus norvegicus, 10 uM test compound, relative to quetiapine, sheet "All OLga data", read-out: OL differentiation, 10 uM (% Quet)
[21] = read-out: 0.1 µM (% DMSO), alamarBlue viability of expanded OPCs, compound at 0.1 µM, sheet All Tox data
[22] = read-out: 1 µM (% DMSO), alamarBlue viability of expanded OPCs, compound at 1 µM, sheet All Tox data
[23] = read-out: 10 µM (% DMSO), alamarBlue viability of expanded OPCs, compound at 10 µM, sheet All Tox data
[24] = Rattus norvegicus, 0.4 uM test compound, relative to quetiapine, sheet "All OLga data", read-out: OL differentiation, 0.4 uM (% Quet)

SMILES	0.1 µM (% DMSO) [2, 5]	1 µM (% DMSO) [2, 6]	10 µM (% DMSO) [2, 7]	activation at 2 µM [1, 19]	activation at 10 µM [1, 20]	viability at 0.1 µM [2, 21]	viability at 1 µM [2, 22]	viability at 10 µM [2, 23]	other results
CCCC(=O)O[C@]1(C(=O)COC(=O)CC)CC[C@H]2[C@@H]3CCC4=CC(=O)CC[C@]4(C)[C@H]3[C@@H](O)C[C@@]21C [Hydrocortisone buteprate]	112.3 % DMSO	102.8 % DMSO	90.3 % DMSO						activation at 2 µM [1, 3]: 19.4%; activation at 10 µM [1, 4]: 13.5%
N=C(N)N [Guanidine]									2 uM (% Quet) [1, 8]: 1.4 % Quet; 10 uM (% Quet) [1, 9]: 5.3 % Quet; 0.1 µM (% DMSO) [2, 10]: 86.5 % DMSO; 1 µM (% DMSO) [2, 11]: 89.1 % DMSO; 10 µM (% DMSO) [2, 12]: 85.5 % DMSO
CC(C)NCC(O)COc1ccc(CC(N)=O)cc1 (centres unmarked) [Atenolol]	90.5 % DMSO	105.2 % DMSO	146.2 % DMSO						activation at 2 µM [1, 3]: 31.5%; activation at 10 µM [1, 4]: 86.2%
CCc1oc2ccccc2c1C(=O)c1cc(Br)c(O)c(Br)c1 [Benzbromarone]									activation at 0.4 µM [1, 13]: -1.1%; activation at 2 µM [1, 3]: 23.7%; viability at 0.1 µM [2, 14]: 95.3%; viability at 1 µM [2, 15]: 93.2%; viability at 10 µM [2, 16]: 35.6%
C[C@H]1C[C@H]2[C@@H]3CCC4=CC(=O)C=C[C@]4(C)[C@@]3(Cl)[C@@H](O)C[C@]2(C)[C@@]1(O)C(=O)CO [Beclomethasone]									2 uM (% Quet) ([1]; test compound at 2 uM, MBP expression relative to quetiapine, NCC library screen, sheet "All OLga data"): -121.4 % Quet; 2 uM (% Quet) [1, 8]: -1.4 % Quet; 10 uM (% Quet) ([1]; test compound at 10 uM, MBP expression relative to quetiapine, NCC library screen, sheet "All OLga data"): -191.3 % Quet; 10 uM (% Quet) [1, 9]: -5.2 % Quet; 0.1 µM (% DMSO) [2]: 90.7 % DMSO; 1 µM (% DMSO) [2]: 90.4 % DMSO; 10 µM (% DMSO) [2]: 81.7 % DMSO; 0.1 µM (% DMSO) [2, 10]: 110.9 % DMSO; 1 µM (% DMSO) [2, 11]: 114.8 % DMSO; 10 µM (% DMSO) [2, 12]: 117.6 % DMSO
O=C1CC[C@@]2(O)[C@H]3Cc4ccc(O)c5c4[C@@]2(CCN3CC2CC2)[C@H]1O5 [Naltrexone]	99.5 % DMSO	101.6 % DMSO	97.3 % DMSO						activation at 2 µM [1, 17]: 12.8%; activation at 10 µM [1, 18]: -5.6%
CCC(C(N)=O)N1CCCC1=O (centres unmarked) [Etiracetam]				-3.1%	-6.3%	86.3%	90.6%	91.7%	
Fc1cncnc1 [5-fluoropyrimidine]				-16.3%	-9.2%				viability at 0.1 µM [2, 14]: 89.9%; viability at 1 µM [2, 15]: 85.6%; viability at 10 µM [2, 16]: 80.4%
O=c1[nH]c(=O)n([C@H]2C[C@H](O)[C@@H](CO)O2)cc1F [Floxuridine]	65.0 % DMSO	64.9 % DMSO	67.9 % DMSO						activation at 0.4 µM ([1]; Rattus norvegicus, test compound at 0.4 uM, MBP expression relative to quetiapine, NCC library screen, sheet "All OLga data", read-out: 0.4 uM (% Quet)): -13.5%; activation at 2 µM [1, 17]: -23.6%
C[C@]12CC[C@@H]3c4ccc(O)cc4CC[C@H]3[C@@H]1CC[C@@H]2O [Estradiol]				15.2%	32.1%	81.2%	75.5%	64.6%	
CC1=C(/C=C/C(C)=C/C=C/C(C)=C/C(=O)O)C(C)(C)CCC1 [Retinoic Acid]	144.5 % DMSO	188.5 % DMSO	58.3 % DMSO						activation at 0.4 µM [1, 13]: -23%; activation at 2 µM [1, 3]: 128%
CCOc1cc(N)c(Cl)cc1C(=O)NCC1CN(Cc2ccc(F)cc2)CCO1 (centres unmarked) [Mosapride]				-17%	4.4%	102%	104%	130%	
Cc1ccc(O)c([C@H](CCN(C(C)C)C(C)C)c2ccccc2)c1 [Tolterodine]				-0.9%		88.4%	87.8%	46.5%	activation at 0.4 µM [1, 24]: -6.8%
C[C@H]1C[C@H]2[C@@H]3CCC4=CC(=O)C=C[C@]4(C)[C@@]3(F)[C@@H](O)C[C@]2(C)[C@@]1(O)C(=O)CCl [Clobetasol]									2 uM (% Quet) [1, 8]: -30.9 % Quet; 10 uM (% Quet) [1, 9]: -99.6 % Quet; 0.1 µM (% DMSO) [2, 10]: 124.1 % DMSO; 1 µM (% DMSO) [2, 11]: 133.0 % DMSO; 10 µM (% DMSO) [2, 12]: 121.5 % DMSO
Cc1cccc(Nc2ccncc2S(=O)(=O)NC(=O)NC(C)C)c1 [Torsemide]				31.2%	-6.1%	90.5%	88.3%	93.4%	
Clc1ccc2nsnc2c1NC1=NCCN1 [Tizanidine]	92.8 % DMSO	97.3 % DMSO	87.9 % DMSO						activation at 2 µM [1, 17]: 13.7%; activation at 10 µM [1, 18]: -4.2%
CC1=C(/C=C/C(C)=C/C=C/C(C)=C\C(=O)O)C(C)(C)CCC1 [Isotretinoin]	104.5 % DMSO	112.6 % DMSO	136.3 % DMSO						activation at 2 µM [1, 17]: -19.2%; activation at 10 µM [1, 18]: -6.2%
CC(=O)[C@H]1CC[C@H]2[C@@H]3CCC4=CC(=O)CC[C@]4(C)[C@H]3CC[C@]12C [Progesterone]				21.9%	23.3%	88.2%	102%	113%	
CC(C)c1cccc(C(C)C)c1O [Propofol]									activation at 2 µM ([1]; Rattus norvegicus, read-out: 2 uM (% Quet)): -0.9%; activation at 10 µM ([1]; Rattus norvegicus, read-out: 10 uM (% Quet)): 0.36%; 0.1 µM (% DMSO) ([2]; rat): 93.1 % DMSO; 1 µM (% DMSO) ([2]; rat): 85.9 % DMSO; 10 µM (% DMSO) ([2]; rat): 87.2 % DMSO
Clc1cccc(Cl)c1N=C1NCCN1 [Clonidine hydrochloride]				-12.5%	-14.3%				viability at 0.1 µM [2, 14]: 91.9%; viability at 1 µM [2, 15]: 84.3%; viability at 10 µM [2, 16]: 77.2%
Nc1cc(N2CCCCC2)nc(N)[n+]1[O-] [Minoxidil]	93.0 % DMSO	102.8 % DMSO	89.5 % DMSO						activation at 2 µM [1, 17]: 13.4%; activation at 10 µM [1, 18]: -4.2%
CC(=O)SCC(Cc1ccccc1)C(=O)NCC(=O)OCc1ccccc1 (centres unmarked) [Racecadotril]				23%	56.4%	87.4%	92.9%	77.6%	
Nc1ccn([C@H]2CC[C@@H](CO)O2)c(=O)n1 [Zalcitabine]				-5.5%	-96.7%				viability at 0.1 µM [2, 14]: 95.4%; viability at 1 µM [2, 15]: 86.4%; viability at 10 µM [2, 16]: 79.3%
CCn1cc(C(=O)O)c(=O)c2cc(F)c(N3CCNCC3)cc21 [Norfloxacin]	111.0 % DMSO	105.5 % DMSO	99.0 % DMSO						activation at 2 µM [1, 3]: -20.2%; activation at 10 µM [1, 4]: -13%
CN(C/C=C/C#CC(C)(C)C)Cc1cccc2ccccc12 [Terbinafine]				-91.1%					activation at 0.4 µM [1, 24]: -31.1%; viability at 0.1 µM [2, 14]: 90.5%; viability at 1 µM [2, 15]: 92.2%; viability at 10 µM [2, 16]: 11%
C[C@@H](c1ncncc1F)[C@](O)(Cn1cncn1)c1ccc(F)cc1F [Voriconazole]				4.8%	10%	99.1%	97.4%	96%	
CC(=O)O[C@@]12CO[C@@H]1C[C@H](O)[C@@]1(C)C(=O)[C@H](O)C3=C(C)[C@@H](OC(=O)[C@H](O)[C@@H](NC(=O)OC(C)(C)C)c4ccccc4)C[C@@](O)([C@@H](OC(=O)c4ccccc4)[C@H]21)C3(C)C [Docetaxel]						39.1%	38.8%	47.6%	activation at 0.08 µM ([1]; Rattus norvegicus, 0.08 uM test compound, relative to quetiapine, sheet "All OLga data", read-out: OL differentiation, 0.08 uM (% Quet)): -94.4%; activation at 0.4 µM [1, 24]: -105%
